Here are results for 33 molecules from patent US10034886B2, “GLP-1 receptor modulators” (Celgene International II SÀRL, priority 2014, dated 2018).

Molecules are shown by their SMILES. Some results are limits rather than exact numbers.

T1 sequence (P43220 24-463): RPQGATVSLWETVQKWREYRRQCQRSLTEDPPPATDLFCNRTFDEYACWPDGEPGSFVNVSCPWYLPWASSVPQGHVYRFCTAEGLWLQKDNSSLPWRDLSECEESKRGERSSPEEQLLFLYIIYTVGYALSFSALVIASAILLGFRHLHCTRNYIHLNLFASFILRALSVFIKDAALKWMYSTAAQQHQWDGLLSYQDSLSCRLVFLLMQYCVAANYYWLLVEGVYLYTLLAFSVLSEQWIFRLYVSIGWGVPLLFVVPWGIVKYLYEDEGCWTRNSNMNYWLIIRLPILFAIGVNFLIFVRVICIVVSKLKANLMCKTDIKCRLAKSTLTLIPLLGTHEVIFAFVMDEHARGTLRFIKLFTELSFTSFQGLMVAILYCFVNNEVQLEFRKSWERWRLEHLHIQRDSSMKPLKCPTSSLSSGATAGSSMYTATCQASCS
T1 sequence (P01275 100-127 partner limits assumed): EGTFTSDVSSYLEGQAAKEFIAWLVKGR

One assay addresses T1, GLP-1R (Homo sapiens, UniProt P43220).
T1 construct: host or cells: GLP-1R CRE-bla CHO-K1 cells
Briefly: EC20 GLP-1(9-36) PAM cAMP assay: dose response of compound in the presence of fixed concentration of GLP-1(9-36). In kind it is cell-based. As to conditions: GLP-1R CRE-bla CHO-K1 cells, compound dose response with fixed concentration of GLP-1(9-36), read-out: EC20 GLP-1(9-36) PAM EC50. In a few lines: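 GLP-1R CRE-bla CHO-K1 cells treated 30 min at 37 °C with 12-point compound dose response plus fixed EC20 GLP-1(9-36), with IBMX, in HBSS/HEPES/0.1% BSA pH 7.4. Total cAMP measured by luminescent detection against standard curve; EC50 and Emax from non-linear regression.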
By EC50 is commonly meant the midpoint of the concentration-response curve. Consider `CC(C)(C)c1ccc(C(=O)N[C@@H](Cc2ccc(-c3ncc(-c4ccc(-c5cccc(C#N)c5)cc4F)cn3)cc2)C(=O)N2CC(C(=O)O)C2)s1` [Compound 1202], for which the EC50 lay in the range of 5000 to 10000 nM.
Regarding `CC(C)(C)c1ccc(C(=O)N[C@@H](Cc2ccc(-c3ncc(-c4ccc(-c5ccc(OC(F)(F)F)cc5F)cc4F)cn3)cc2)C(=O)N2CC(C(=O)O)C2)s1` [Compound 1203], the EC50 was below 800 nM.
Same read-out and setting: the same measure for `Cc1ccc(-c2ccc(-c3cnc(-c4ccc(C[C@H](NC(=O)c5ccc(C(C)(C)C)s5)C(=O)N5CC(C(=O)O)C5)cc4)nc3)c(F)c2)c(F)c1` [Compound 1204]: below 800 nM.
On the same count and under the same terms, the same measure for `Cc1cccc(C)c1-c1ccc(-c2cnc(-c3ccc(C[C@H](NC(=O)c4ccc(C(C)(C)C)s4)C(=O)N4CC(C(=O)O)C4)cc3)nc2)c(F)c1` [Compound 1205]: below 800 nM; for `Cc1cc(F)ccc1-c1ccc(-c2cnc(-c3ccc(C[C@H](NC(=O)c4ccc(C(C)(C)C)s4)C(=O)N4CC(C(=O)O)C4)cc3)nc2)c(F)c1` [Compound 1206]: 800 to 2500 nM.
The same measure, in the same setting: the figure for `Cc1ccc(-c2ccc(-c3cnc(-c4ccc(C[C@H](NC(=O)c5ccc(C(C)(C)C)s5)C(=O)N5CC(C(=O)O)C5)cc4)nc3)c(F)c2)cc1` [Compound 1207] is below 800 nM; for `CCCc1ccc(-c2ccc(-c3cnc(-c4ccc(C[C@H](NC(=O)c5ccc(C(C)(C)C)s5)C(=O)N5CC(C(=O)O)C5)cc4)nc3)c(F)c2)cc1` [Compound 1208] it is below 800 nM; for `CC(C)(C)c1ccc(C(=O)N[C@@H](Cc2ccc(-c3ncc(-c4ccc(-c5ccc(C6CC6)cc5)cc4F)cn3)cc2)C(=O)N2CC(C(=O)O)C2)s1` [Compound 1209] it is below 800 nM.
As for `CC(C)(C)c1ccc(C(=O)N[C@@H](Cc2ccc(-c3ncc(-c4ccc(-c5ccc(C6CCC6)cc5)cc4F)cn3)cc2)C(=O)N2CC(C(=O)O)C2)s1` [Compound 1210], the EC50 is below 800 nM.
The same measure, in the same setting: the same measure for `CC(C)(C)c1ccc(C(=O)N[C@@H](Cc2ccc(-c3ncc(-c4ccc(-c5ccc(C6CCCC6)cc5)cc4F)cn3)cc2)C(=O)N2CC(C(=O)O)C2)s1` [Compound 1211]: below 800 nM.
As for `CC(C)(C)c1ccc(C(=O)N[C@@H](Cc2ccc(-c3ncc(-c4ccc(-c5ccc(C6CCCCC6)cc5)cc4F)cn3)cc2)C(=O)N2CC(C(=O)O)C2)s1` [Compound 1212], the EC50 is below 800 nM.
On to `CC(C)(C)c1ccc(C(=O)N[C@@H](Cc2ccc(-c3ncc(-c4ccc(-c5ccc(F)cc5)cc4F)cn3)cc2)C(=O)N2CC(C(=O)O)C2)s1` [Compound 1213], for which the EC50 is below 800 nM.
Turning to `Cc1ccc(-c2ccc(-c3ccc(-c4cnc(-c5ccc(C[C@H](NC(=O)c6ccc(C(C)(C)C)s6)C(=O)N6CC(C(=O)O)C6)cc5)nc4)c(F)c3)cc2)cc1` [Compound 1214], the EC50 lay in the range of 2500 to 5000 nM.
Same read-out and setting: the figure for `CC(C)(C)c1ccc(C(=O)N[C@@H](Cc2ccc(-c3ncc(-c4ccc(-c5cccc(OC(F)(F)F)c5)cc4F)cn3)cc2)C(=O)N2CC(C(=O)O)C2)s1` [Compound 1215] is below 800 nM; for `CC(C)(C)c1ccc(C(=O)N[C@@H](Cc2ccc(-c3ncc(-c4ccc(-c5ccc(C(F)(F)F)c(F)c5F)cc4F)cn3)cc2)C(=O)N2CC(C(=O)O)C2)s1` [Compound 1216] it is below 800 nM; for `CC(C)(C)c1ccc(C(=O)N[C@@H](Cc2ccc(-c3ncc(-c4ccc(-c5ccc(C(F)(F)F)c(F)c5)cc4F)cn3)cc2)C(=O)N2CC(C(=O)O)C2)s1` [Compound 1217] it is below 800 nM.
With `CC(C)(C)c1ccc(C(=O)N[C@@H](Cc2ccc(-c3ncc(-c4ccc(-c5ccc(C(F)(F)F)cc5)cc4F)cn3)cc2)C(=O)N2CC(C(=O)O)C2)s1` [Compound 1218], the EC50 was below 800 nM.
On the same count and under the same terms, the figure for `Cc1cc(-c2ccc(-c3cnc(-c4ccc(C[C@H](NC(=O)c5ccc(C(C)(C)C)s5)C(=O)N5CC(C(=O)O)C5)cc4)nc3)c(F)c2)ccc1OC(F)(F)F` [Compound 1219] is below 800 nM; for `CC(C)c1ccc(-c2ccc(-c3cnc(-c4ccc(C[C@H](NC(=O)c5ccc(C(C)(C)C)s5)C(=O)N5CC(C(=O)O)C5)cc4)nc3)c(F)c2)cc1` [Compound 1220] it is below 800 nM; for `CC(C)Cc1ccc(-c2ccc(-c3cnc(-c4ccc(C[C@H](NC(=O)c5ccc(C(C)(C)C)s5)C(=O)N5CC(C(=O)O)C5)cc4)nc3)c(F)c2)cc1` [Compound 1221] it is below 800 nM.
`CC(C)(C)c1ccc(C(=O)N[C@@H](Cc2ccc(-c3ncc(-c4ccc(-c5ccc(C(F)(F)F)cc5F)cc4F)cn3)cc2)C(=O)N2CC(C(=O)O)C2)s1` [Compound 1222]: the EC50 was below 800 nM.
Still for that read-out and setting: the same measure for `CC(C)(C)c1ccc(C(=O)N[C@@H](Cc2ccc(-c3ncc(-c4ccc(-c5ccccc5C(F)(F)F)cc4F)cn3)cc2)C(=O)N2CC(C(=O)O)C2)s1` [Compound 1223]: below 800 nM; for `CC(C)(C)c1ccc(C(=O)N[C@@H](Cc2ccc(-c3ncc(-c4ccc(-c5ccccc5OC(F)(F)F)cc4F)cn3)cc2)C(=O)N2CC(C(=O)O)C2)s1` [Compound 1224]: below 800 nM; for `Cc1cc(-c2ccc(-c3cnc(-c4ccc(C[C@H](NC(=O)c5ccc(C(C)(C)C)s5)C(=O)N5CC(C(=O)O)C5)cc4)nc3)c(F)c2)ccc1C(F)(F)F` [Compound 1225]: below 800 nM.
In the case of `CCCCc1ccc(-c2ccc(-c3cnc(-c4ccc(C[C@H](NC(=O)c5ccc(C(C)(C)C)s5)C(=O)N5CC(C(=O)O)C5)cc4)nc3)c(F)c2)cc1` [Compound 1226, (S)-1-(2-(5-(tert-butyl)thiophene-2-carboxamido)-3-(4-(5-(4′-butyl-3-fluoro-[1,1′-biphenyl]-4-yl)pyrimidin-2-yl)phenyl)propanoyl)azetidine-3-carboxylic acid], the EC50 was below 800 nM.

Staying with this assay, now noted: dose response of compound in presence of fixed concentration of GLP-1(9-36), GLP-1R CRE-bla CHO-K1 cells, read-out: EC20 GLP-1(9-36) PAM EC50.
Consider `CC(C)(C)c1ccc(C(=O)N[C@@H](Cc2ccc(-c3ncc(-c4ccc(-c5ccccc5F)cc4F)cn3)cc2)C(=O)N2CC(C(=O)O)C2)s1` [Compound 1194], for which the EC50 is below 800 nM.
`CC(C)(C)c1ccc(C(=O)N[C@@H](Cc2ccc(-c3ncc(-c4ccc(-c5ccccc5Cl)cc4F)cn3)cc2)C(=O)N2CC(C(=O)O)C2)s1` [Compound 1195]: the EC50 was below 800 nM.
As for `Cc1ccc(-c2ccc(-c3cnc(-c4ccc(C[C@H](NC(=O)c5ccc(C(C)(C)C)s5)C(=O)N5CC(C(=O)O)C5)cc4)nc3)c(F)c2)cc1Cl` [Compound 1196], the EC50 was below 800 nM.
The same measure, in the same setting: the same measure for `CC(=O)c1ccccc1-c1ccc(-c2cnc(-c3ccc(C[C@H](NC(=O)c4ccc(C(C)(C)C)s4)C(=O)N4CC(C(=O)O)C4)cc3)nc2)c(F)c1` [Compound 1197]: 800 to 2500 nM; for `CC(C)(C)c1ccc(C(=O)N[C@@H](Cc2ccc(-c3ncc(-c4ccc(-c5cc(Cl)cc(Cl)c5)cc4F)cn3)cc2)C(=O)N2CC(C(=O)O)C2)s1` [Compound 1198]: below 800 nM.
On the same count and under the same terms, the same measure for `Cc1cc(-c2ccc(-c3cnc(-c4ccc(C[C@H](NC(=O)c5ccc(C(C)(C)C)s5)C(=O)N5CC(C(=O)O)C5)cc4)nc3)c(F)c2)ccc1Cl` [Compound 1199]: below 800 nM; for `CC(C)(C)c1ccc(C(=O)N[C@@H](Cc2ccc(-c3ncc(-c4ccc(-c5ccc(Cl)c(Cl)c5)cc4F)cn3)cc2)C(=O)N2CC(C(=O)O)C2)s1` [Compound 1200]: below 800 nM; for `CC(C)(C)c1ccc(C(=O)N[C@@H](Cc2ccc(-c3ncc(-c4ccc(-c5ccc(C#N)cc5)cc4F)cn3)cc2)C(=O)N2CC(C(=O)O)C2)s1` [Compound 1201]: below 800 nM.
